The values below come from ChEMBL document CHEMBL3217466, “Synthesis and biological activity of hydroxybenzylidenyl pyrrolidine-2,5-dione derivatives as new potent inhibitors of tyrosinase” (Medchemcomm, 2011).

In series [1] the target is T1, Tyrosinase (Mus musculus) (UniProt P11344).
T1 sequence (whole entry): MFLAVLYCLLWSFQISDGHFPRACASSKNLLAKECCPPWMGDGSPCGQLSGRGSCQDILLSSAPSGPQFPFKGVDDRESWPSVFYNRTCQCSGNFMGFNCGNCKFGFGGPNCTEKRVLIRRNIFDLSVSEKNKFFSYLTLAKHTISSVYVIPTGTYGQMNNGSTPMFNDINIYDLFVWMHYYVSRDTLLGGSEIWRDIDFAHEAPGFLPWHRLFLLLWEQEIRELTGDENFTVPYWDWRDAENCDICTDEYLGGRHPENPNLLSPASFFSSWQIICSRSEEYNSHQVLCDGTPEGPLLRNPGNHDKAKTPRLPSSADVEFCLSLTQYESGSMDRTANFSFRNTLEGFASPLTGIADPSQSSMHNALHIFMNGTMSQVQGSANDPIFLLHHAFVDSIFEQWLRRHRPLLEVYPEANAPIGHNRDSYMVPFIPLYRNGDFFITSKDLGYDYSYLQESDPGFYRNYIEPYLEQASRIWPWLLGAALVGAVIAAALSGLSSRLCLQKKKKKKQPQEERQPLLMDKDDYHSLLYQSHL
Nature of the series: Inhibition of tyrosinase in mouse B16F10 cells assessed as rate of L-DOPA oxidation at 2.5 uM after 24 hrs by ELISA in presence of alpha-MSH (reference value: […]%). Format: cell-based. More on the design: scale not given: the % may be the effect or the level left. To be noted: B16-F10. On the technique in general: An ELISA detects its analyte on a solid surface through an enzyme-linked reagent.

Series [2] deals with B16-F10. Nature of the series: Inhibition of melanogenesis in mouse B16F10 cells assessed as melanin content at 5 uM after 24 hrs in presence of alpha-MSH (reference value: 241.87%). Format: functional. More on the design: scale not given: the % may be the effect or the level left.
Series [3] has as its target T1, Tyrosinase (Mus musculus). Nature of the series: Inhibition of tyrosinase in mouse B16F10 cells assessed as rate of L-DOPA oxidation at 5 uM after 24 hrs by ELISA in presence of alpha-MSH (reference value: […]%). Format: cell-based. The conditions noted are these: B16-F10. Also noted: scale not given: the % may be the effect or the level left.
In series [4] the target is T1, Tyrosinase (Mus musculus). Nature of the series: Inhibition of tyrosinase in mouse B16F10 cells assessed as rate of L-DOPA oxidation at 0.2 uM after 24 hrs by ELISA in presence of alpha-MSH (reference value: […]%). More on the design: scale not given: the % may be the effect or the level left. The class given is cell-based. The conditions noted are these: B16-F10.

A short description of series [5]: Cytotoxicity against mouse B16F10 cells assessed as cell viability at 2.5 uM after 48 hrs by MTT assay. Format: cell-based, B16-F10. To be noted: read-out: Activity.
For series [6], the system named is B16-F10. Nature of the series: Inhibition of melanogenesis in mouse B16F10 cells assessed as melanin content at 0.2 uM after 24 hrs in presence of alpha-MSH (reference value: 241.87%). Format: functional. Also noted: scale not given: the % may be the effect or the level left.
Series [7] concerns B16-F10. Briefly: Inhibition of melanogenesis in mouse B16F10 cells assessed as melanin content at 10 uM after 24 hrs in presence of alpha-MSH (reference value: 241.87%). The class given is functional. More on the design: scale not given: the % may be the effect or the level left.
Series [8] in a line: Cytotoxicity against mouse B16F10 cells assessed as cell viability at 0.2 uM after 48 hrs by MTT assay. The class given is cell-based, B16-F10. To be noted: read-out: Activity.
The target in series [9] is T2, Tyrosinase (Agaricus bisporus, UniProt O42713).
T2 sequence (O42713 whole entry): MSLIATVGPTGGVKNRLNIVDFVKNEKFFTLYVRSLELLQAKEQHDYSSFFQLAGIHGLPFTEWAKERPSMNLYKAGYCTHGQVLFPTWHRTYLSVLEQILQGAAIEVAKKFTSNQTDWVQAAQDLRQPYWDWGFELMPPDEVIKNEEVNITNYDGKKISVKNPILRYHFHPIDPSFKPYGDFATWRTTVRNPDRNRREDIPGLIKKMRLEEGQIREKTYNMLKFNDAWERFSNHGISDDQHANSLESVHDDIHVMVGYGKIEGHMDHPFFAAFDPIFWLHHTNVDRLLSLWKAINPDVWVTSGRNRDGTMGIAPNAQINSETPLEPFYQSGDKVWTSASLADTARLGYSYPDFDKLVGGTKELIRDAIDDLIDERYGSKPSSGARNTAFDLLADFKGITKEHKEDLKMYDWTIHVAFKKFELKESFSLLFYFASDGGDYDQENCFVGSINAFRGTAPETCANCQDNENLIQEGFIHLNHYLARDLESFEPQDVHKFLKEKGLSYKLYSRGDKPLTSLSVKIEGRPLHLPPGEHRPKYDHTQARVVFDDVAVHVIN
Briefly: Inhibition of mushroom tyrosinase assessed as decrease in dopachrome production using L-tyrosine as substrate by spectrophotometric analysis.

Series [10] can be described thus: Cytotoxicity against mouse B16F10 cells assessed as cell viability at 5 uM after 48 hrs by MTT assay. To be noted: read-out: Activity. Format: cell-based, B16-F10. On the technique in general: Tetrazolium assays rely on reduction of a dye to a coloured formazan, in cell work by metabolically active cells.
The test system of series [11] is B16-F10. Nature of the series: Inhibition of melanogenesis in mouse B16F10 cells assessed as decrease in melanin content after 24 hrs in presence of alpha-MSH. Format: functional, cell-based.
The target of series [12] is T1, Tyrosinase (Mus musculus). Briefly: Inhibition of tyrosinase in mouse B16F10 cells assessed as rate of L-DOPA oxidation at 10 uM after 24 hrs by ELISA in presence of alpha-MSH (reference value: […]%). Format: cell-based. To be noted: B16-F10. Also noted: scale not given: the % may be the effect or the level left.
Series [13] is described as follows: Cytotoxicity against mouse B16F10 cells assessed as cell viability at 10 uM after 48 hrs by MTT assay. The class given is cell-based, B16-F10. The conditions noted are these: read-out: Activity.
Series [14] in a line: Cytotoxicity against mouse B16F10 cells assessed as cell viability at 1 uM after 48 hrs by MTT assay. To be noted: read-out: Activity. The class given is cell-based, B16-F10.
For series [15], the system named is B16-F10. Briefly: Inhibition of melanogenesis in mouse B16F10 cells assessed as melanin content at 2.5 uM after 24 hrs in presence of alpha-MSH (reference value: 241.87%). The class given is functional. Also noted: scale not given: the % may be the effect or the level left.
For series [16], the target named is T2, Tyrosinase. Nature of the series: Competitive inhibition of mushroom tyrosinase assessed as decrease in rate of dopachrome formation using L-tyrosine as substrate at 1.25 uM by Lineweaver-Burk plot analysis.
Series [17] addresses T2, Tyrosinase. Nature of the series: Competitive inhibition of mushroom tyrosinase assessed as decrease in rate of dopachrome formation using L-tyrosine as substrate at 20 uM by Lineweaver-Burk plot analysis.
In series [18] the target is T1, Tyrosinase (Mus musculus). Briefly: Inhibition of tyrosinase in mouse B16F10 cells assessed as rate of L-DOPA oxidation at 1 uM after 24 hrs by ELISA in presence of alpha-MSH (reference value: […]%). The class given is cell-based. More on the design: scale not given: the % may be the effect or the level left. To be noted: B16-F10.
The test system of series [19] is B16-F10. Nature of the series: Inhibition of melanogenesis in mouse B16F10 cells assessed as melanin content at 1 uM after 24 hrs in presence of alpha-MSH (reference value: 241.87%). Format: functional. More on the design: scale not given: the % may be the effect or the level left.

On to `COc1ccc(/C=C2\CC(=O)NC2=O)cc1O`, for which the Activity was found to be 103% in [1]; 103.74% in series [2]; 101% in [3]; 224% in [4]; 236.67% in [6]; 99.49% in [7]. Further, the Activity came to 97.1% in [12], 113.11% in [15], 177% in series [18] and 231.69% in series [19]. In addition, the viability at 48 h, 2.5 µM in series [5] is 98.4%. In addition, the viability at 48 h, 0.2 µM in [8] was determined as 99.5%. The IC50 – broadly, the concentration at which inhibition is half-maximal – in [9] worked out at 2230 nM. Moreover, the viability at 48 h, 5 µM in series [10] amounted to 98.1%. Besides, the inhibition result in series [11] is “Dose-dependent effect”. The viability at 48 h, 10 µM in [13] turned out to be 97.8%. In series [14], the viability at 48 h, 1 µM is 98.9%. Besides, the inhibition constant Ki (usually a measure of affinity in units of concentration, obtained from inhibition or displacement) was determined as 424 nM in series [16] and 1820 nM in series [17].
